Each structure is given as a SMILES string.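 Tested at 5 concentrations; 48 h exposure; 96-well plates; endpoints linearly interpolated, else capped at highest concentration. Abbreviation: GI50, concentration required for 50% inhibition of growth. TGI marks complete inhibition of growth.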

The term GI50 denotes the concentration giving 50% growth inhibition. Broadly, the TGI is the concentration giving total growth inhibition. Low values mean more potent growth arrest, high ones less potent growth arrest.

What all share (assay): DTP human tumour cell line panel, 48 h
Experiment [1] deals with HOP-92 NSCLC.
Experiment [2] has as its system KM12 colon.
For experiment [3], the system named is MOLT-4 leukemia.
The subject of experiment [4] is IGROV1 ovarian.
Experiment [5] relates to HT29 colon.
The test system of experiment [6] is 786-0 renal.
The test system of experiment [7] is SF-295 CNS.
In experiment [8] the test system is TK-10 renal.
The test system of experiment [9] is BT-549 breast.
Experiment [10] has as its system DU-145 prostate.

Take `CC1CCC2C(C)C(=O)OC3OC4(C)CCC1C32OO4` (centres undefined): the GI50 in experiment [1], in experiment [2], in experiment [5], in experiment [6] and in experiment [8] was above 100 µM each time. The TGI in [1], in experiment [2], in experiment [3], in [4], in [5] and in experiment [6] was above 100 µM in each case. Further, the TGI in experiment [7], in experiment [8] and in experiment [9] was above 100 µM each time.

`O=C(O)CN(c1ccccc1)S(=O)(=O)c1cccc([N+](=O)[O-])c1`: the TGI in [1], in experiment [2], in experiment [3], in experiment [4], in experiment [5] and in experiment [6] was above 100 µM in each case. In addition, the TGI in experiment [7] and in experiment [8] was above 100 µM in each case.

For the compound `CC1(C)NC(=O)N(CCCCCCN2C(=O)NC(C)(C)C2=O)C1=O`, the TGI in experiment [1], in [2], in experiment [3], in experiment [4], in [5] and in experiment [6] was above 100 µM in each case. Also, the TGI in experiment [8] is above 100 µM.

On to `COC(=O)c1cc(NC(=O)c2cc(NC(=O)c3cc([N+](=O)[O-])n(C)c3)cn2C)cn1C`, for which the GI50 is 13.2 µM in [1]; 80.8 µM in experiment [2]; above 100 µM in experiment [4]; 7.74 µM in [5]; above 100 µM in experiment [6]; 32.8 µM in experiment [7]. Also, the GI50 in experiment [8] was 46.7 µM; in experiment [9], 40.1 µM. In addition, the TGI in experiment [1] is 85.2 µM; in experiment [2], above 100 µM; in experiment [4], above 100 µM; in [5], 31 µM; in experiment [6], above 100 µM; in experiment [7] it was above 100 µM. The TGI in [8] and in experiment [9] was above 100 µM in each case.

As for `COc1cc2c(cc1OC)C(C#N)N(C(=O)c1ccccc1)C=C2OC(=O)c1ccccc1` (centres undefined), the TGI in experiment [1] was 77 µM; in [2] it was above 100 µM; in experiment [3], above 100 µM; in [4], 50.2 µM; in experiment [5], above 100 µM; in [6], 34.7 µM. Moreover, the results for the TGI in experiment [7] and in [8] were 45.4 µM and 50.5 µM, respectively.

With `C/C(CCn1[nH]c(=O)ccc1=O)=N\NC(=O)C(N)=O`, the TGI in experiment [1], in [2], in experiment [4], in experiment [5], in [6] and in [7] was above 100 µM in each case. This compound also gave a TGI in experiment [8] above 100 µM.

`N#CC1C[C@@H]2CC3(CCC2CN1C(=O)c1ccccc1)OCCO3` (some centres undefined): the total growth inhibition concentration (TGI) in experiment [1], in experiment [2], in [3], in [4], in [5] and in experiment [6] was above 100 µM in each case. Moreover, the TGI in experiment [7], in experiment [10] and in experiment [8] was above 100 µM each time. Also, in experiment [10], the GI50 is above 100 µM.

For `COc1cc2c3c(n(CCCN(CCCN(CCCn4c5c(c6ccccc6c4=O)C(=O)c4ccccc4-5)C(=O)OC(C)(C)C)C(=O)OC(C)(C)C)c(=O)c2cc1OC)-c1cc2c(cc1C3=O)OCO2`, the GI50 in [1], in experiment [2], in experiment [3], in [4], in [5] and in experiment [6] was above 100 µM each time. Moreover, the GI50 in experiment [7] is above 100 µM; in experiment [8] it was 50.1 µM; in experiment [9] it was 34.7 µM. Moreover, the TGI in [1], in [2], in experiment [3], in [4], in experiment [5] and in experiment [6] was above 100 µM each time. Moreover, the TGI in [7], in experiment [8] and in [9] was above 100 µM throughout.

Turning to `N#CCCN(CCC#N)c1ccc(/C=C(/NC(=O)c2cc([N+](=O)[O-])ccc2Cl)C(=O)NN)cc1`, the total growth inhibition concentration (TGI) in experiment [2], in experiment [3], in experiment [4], in experiment [5], in experiment [6] and in experiment [7] was above 100 µM throughout. Moreover, the total growth inhibition concentration (TGI) in experiment [8] is above 100 µM.

For the compound `O=C(NC(=Nc1ccccc1)SCSC(=Nc1ccccc1)NC(=O)c1ccco1)c1ccco1`, the TGI is 53.7 µM in experiment [1]; above 100 µM in [2]; above 100 µM in experiment [3]; above 100 µM in experiment [4]; above 100 µM in [5]; above 100 µM in [6]. Also, the concentration for total growth inhibition (TGI) in [7] worked out at 78.4 µM; in experiment [8] it was 70.4 µM.

For the compound `c1ccc2c(c1)SC(=C1Sc3ccccc3S1)S2`, the TGI in [1], in [3], in [4], in [5], in [6] and in experiment [7] was above 100 µM each time. This compound yielded a TGI in experiment [8] above 100 µM.

`O=[N+]([O-])c1ccc(/C=C/c2nc3ccc(Cl)cc3[nH]2)cc1`: the GI50 in [2] was 5.6 µM; in experiment [3] it was 59.7 µM; in [4] it was 35.7 µM; in experiment [5], 17.8 µM; in [6], 18.7 µM; in experiment [7] it was 39.9 µM. Also, the GI50 was 19.4 µM in experiment [10] and 28.2 µM in experiment [8]. Moreover, the concentration for total growth inhibition (TGI) was above 100 µM in experiment [2]; above 100 µM in experiment [3]; above 100 µM in experiment [4]; above 100 µM in experiment [5]; 43.3 µM in [6]; above 100 µM in experiment [7]. In addition, the values for the TGI in experiment [10] and in experiment [8] were 66.6 µM and above 100 µM, respectively.

In the case of `O=C(COc1ccccc1Cl)N1N=C(c2ccccc2)CC1(O)c1ccccc1` (centres undefined), the TGI in experiment [1] was determined as 42.3 µM; in experiment [2], 41.8 µM; in experiment [3], 58.8 µM; in experiment [4] it was 55.7 µM; in experiment [5], 30.7 µM; in [6], 31 µM. The TGI in experiment [7] came out at 34.8 µM; in [8], 49.2 µM.
